Data published in US20200354426A1 (MEDIMMUNE LIMITED, priority 2016, published 2020).
Like-named read-outs stand apart in the source and are kept apart here. Numbered stars: 1 amine (or outer) side, 2 acyl side, 3 side chain; on linkers, the order of the positions; unused ones are H or OH. Side chains are listed from the residue outwards. Peptide text beside a SMILES is read from it. * marks the point of attachment. γGlu = O=C(O)[C@H](CCC(=O)[*:2])N[*:1]; Palmitoyl = CCCCCCCCCCCCCCCC(=O)*

Experiments:
[1] = molecular target: T1, Rat GLP1R (Rattus norvegicus, UniProt P32301); test: cAMP assay in 3.2% rat serum albumin (assay 2); type: cell-based
T1 construct: expressed in transfected cells
T1 sequence (P32301 22-463): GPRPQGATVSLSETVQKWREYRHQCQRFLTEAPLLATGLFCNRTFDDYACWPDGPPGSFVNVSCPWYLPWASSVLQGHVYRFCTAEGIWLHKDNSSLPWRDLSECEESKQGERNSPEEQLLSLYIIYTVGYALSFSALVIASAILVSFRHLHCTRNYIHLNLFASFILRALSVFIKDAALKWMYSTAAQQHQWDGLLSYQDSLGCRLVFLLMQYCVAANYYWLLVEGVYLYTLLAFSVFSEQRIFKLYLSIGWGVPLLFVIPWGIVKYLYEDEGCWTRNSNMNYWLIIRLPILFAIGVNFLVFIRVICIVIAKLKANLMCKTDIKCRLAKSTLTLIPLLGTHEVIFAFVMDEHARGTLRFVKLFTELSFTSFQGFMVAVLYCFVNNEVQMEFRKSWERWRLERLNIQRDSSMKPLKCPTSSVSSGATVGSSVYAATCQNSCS
Procedure: (§1) Cryopreserved cell stocks were prepared in 1× cell freezing medium-DMSO serum free (Sigma Aldrich) at 2×10^7/vial and stored at −80° C. […] Peptides were serially diluted in DMSO and then diluted 100 fold into DMEM containing serum albumin at stated final concentration. […] Cells were added to the assay plates and incubated for 30 min at room temperature. Following incubation the assay was stopped and cAMP levels measured using the HTRF® dynamic d2 cAMP assay kit available from CisBio Bioassays, as per the manufacture's guidelines. Plates were read on Perkin Elmer ENVISION® fluorescence plate readers. Human and rat serum albumin were purchased from Sigma Aldrich and mouse serum albumin from Equitech Bio Ltd.
(§2) Data was transformed to % Delta F as described in manufacturer's guidelines and analysed by 4-parameter logistic fit to determine EC50 values. […] For instance. […] To compare the balance of activities at the GLP1R and GlucR between different peptides and across different conditions, these can be correlated using the calculation below, where the EC50's are related to those of the natural ligands.

[2] = Stability testing of peptides in plasma; type: in vitro ADME, rat
Procedure: (§3) The stability in plasma of the peptideS […], […], […] and […] was determined as follows. […] The spiked plasma samples were gently mixed and allowed to equilibrate for about 5 minutes before start of experiment. The plasma samples were incubated for 48 hours in a GalaxyR CO2 incubator at 37° C. […] The samples were stored at -70° C. until analysis. Plasma samples were assayed as follows. […] After mixing and centrifugation, 100 μl the supernatant was transferred to a new plate and 1 μl was injected onto an analytical column. The analysis was performed using a μLC-system ([…]) coupled to a medium high resolution mass spectrometer (Perkin Elmer PenTOF) with positive electrospray ionisation. […] Flow: 0.1 ml/min using a slow reversed phase gradient. […] Cleavage products arise from the action of the protease DPP IV in plasma. Both the degradation of the peptides and formation of peptide products were reported in percentage of the initial peptide concentration. Peaks were integrated and % remaining peptide was calculated: […] Levels of deamidation and DPP IV cleavage were low for […] and […].

[3] = molecular target: T2, Human GIPr (Homo sapiens, UniProt P48546); test: cAMP activity assay in assay medium (assay 1); type: cell-based; conditions: assay medium
T2 construct: expressed in transfected cells
T2 sequence (P48546 22-466): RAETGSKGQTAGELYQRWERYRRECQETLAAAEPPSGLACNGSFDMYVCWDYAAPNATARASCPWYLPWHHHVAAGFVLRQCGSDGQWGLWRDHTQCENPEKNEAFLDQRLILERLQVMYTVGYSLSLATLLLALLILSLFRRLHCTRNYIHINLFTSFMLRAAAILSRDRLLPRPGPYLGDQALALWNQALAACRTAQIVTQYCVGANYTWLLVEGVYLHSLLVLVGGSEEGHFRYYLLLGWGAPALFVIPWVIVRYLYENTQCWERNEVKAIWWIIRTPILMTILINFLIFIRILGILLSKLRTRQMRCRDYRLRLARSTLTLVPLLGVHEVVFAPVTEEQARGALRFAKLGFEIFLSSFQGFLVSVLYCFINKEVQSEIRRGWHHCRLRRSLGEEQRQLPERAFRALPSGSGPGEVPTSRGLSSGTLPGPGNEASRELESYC
From the text: (§4) Biological Activity of Peptides in Cell-Based cAMP Activity Assay (Assay 1):
(§5) All sample dilutions were made in duplicate.

[4] = molecular target: T3, Human GlucR (Homo sapiens, UniProt P47871); test: cAMP activity assay in assay medium (assay 1); type: cell-based; conditions: assay medium
T3 construct: expressed in transfected cells
T3 sequence (P47871 26-477): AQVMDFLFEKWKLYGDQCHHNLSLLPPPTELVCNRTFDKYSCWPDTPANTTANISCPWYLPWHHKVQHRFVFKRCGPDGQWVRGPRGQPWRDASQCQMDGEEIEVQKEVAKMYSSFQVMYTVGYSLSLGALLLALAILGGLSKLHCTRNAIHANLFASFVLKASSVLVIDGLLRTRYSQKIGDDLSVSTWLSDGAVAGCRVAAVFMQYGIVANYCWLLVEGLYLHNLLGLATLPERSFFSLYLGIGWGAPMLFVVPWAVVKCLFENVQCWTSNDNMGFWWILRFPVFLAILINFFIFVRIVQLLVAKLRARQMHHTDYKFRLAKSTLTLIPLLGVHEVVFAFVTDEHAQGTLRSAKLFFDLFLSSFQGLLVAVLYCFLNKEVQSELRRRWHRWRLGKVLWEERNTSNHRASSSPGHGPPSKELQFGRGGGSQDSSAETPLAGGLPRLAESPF
From the text: as §4, §5

[5] = Stability testing of peptides in plasma; type: in vitro ADME, human
Procedure: as §3

[6] = Peptide solubility in isotonic formulations (A280); type: physicochemical
Procedure: Default Formulation (DF)=0.1 M Tris pH 7.5, 150 mM Mannitol. Final formulation pH=7.2 • 2. Back up formulation t (BF)=0.05M Tris, 50 mM Arginine/Proline. Final formulation pH=9.0 • 3. […] Final formulation pH=7.0

[7] = molecular target: Human GLP1R (Homo sapiens, UniProt P43220); test: cell-based
Human GLP1R, sequence (P43220 24-463): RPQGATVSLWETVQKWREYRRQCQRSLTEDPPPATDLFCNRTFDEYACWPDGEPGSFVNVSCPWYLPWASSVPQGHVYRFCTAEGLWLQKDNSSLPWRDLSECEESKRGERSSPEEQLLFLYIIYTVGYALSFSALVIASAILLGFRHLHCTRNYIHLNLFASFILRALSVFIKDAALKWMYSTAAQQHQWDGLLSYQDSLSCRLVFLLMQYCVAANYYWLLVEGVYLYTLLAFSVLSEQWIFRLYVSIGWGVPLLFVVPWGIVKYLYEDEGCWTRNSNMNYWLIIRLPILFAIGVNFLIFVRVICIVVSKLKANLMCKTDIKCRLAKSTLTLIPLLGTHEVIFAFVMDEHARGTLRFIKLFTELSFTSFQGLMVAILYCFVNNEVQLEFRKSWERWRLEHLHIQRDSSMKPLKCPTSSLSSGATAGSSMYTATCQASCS

[8] = molecular target: T3, Human GlucR; test: cAMP assay in 4.4% human serum albumin (assay 2); type: cell-based
Procedure: as §1, §2

SMILES: CCCCCCCCCCCCCCCC(=O)N[C@@H](CCC(=O)NCCCC[C@H](NC(=O)[C@H](CCCCN)NC(=O)[C@H](CO)NC(=O)[C@H](Cc1ccc(O)cc1)NC(=O)[C@H](CC(=O)O)NC(=O)[C@H](CO)NC(=O)[C@@H](NC(=O)[C@H](Cc1ccccc1)NC(=O)[C@@H](NC(=O)CNC(=O)[C@H](CCC(N)=O)NC(=O)[C@H](CO)NC(=O)[C@@H](N)Cc1c[nH]cn1)[C@@H](C)O)[C@@H](C)O)C(=O)N[C@@H](CC(C)C)C(=O)N[C@@H](CC(=O)O)C(=O)N[C@@H](CO)C(=O)N[C@@H](CCC(=O)O)C(=O)N[C@@H](CCCNC(=N)N)C(=O)N[C@@H](C)C(=O)N[C@@H](CCCNC(=N)N)C(=O)N[C@@H](CC(=O)O)C(=O)N[C@@H](Cc1ccccc1)C(=O)N[C@H](C(=O)N[C@@H](C)C(=O)N[C@@H](Cc1c[nH]c2ccccc12)C(=O)N[C@@H](CC(C)C)C(=O)N[C@H](C(=O)N[C@@H](C)C(=O)NCC(=O)NCC(N)=O)C(C)C)C(C)C)C(=O)O [Peptide G730] (H-HSQGTFTSDYSKK([γGlu-Palmitoyl])LDSERARDFVAWLVAGG-NH2; N-terminus assumed)
- EC50 [1]: 0.081 nM
- % +1 prod [2]: 58%
- % DPP cleaved product/+1 DPP cleaved product [2]: 2%
- remaining at 24 h, 2 μmol/L ([2]; rat, plasma): 24%
- EC50 ([3]; Table 2, C-terminal amide peptides, read-out: Human GIPr EC50): 45 nM
- EC50 ([3]; Table 4, read-out: hGIPR EC50): 56.6 nM
- EC50 ([4]; Table 2, C-terminal amide peptides, read-out: Human GlucR EC50): 0.00623 nM
- EC50 ([4]; Table 4, read-out: hGlucR EC50): 0.015 nM
- % +1 prod [5]: <1%
- % DPP cleaved product/+1 DPP cleaved product [5]: <1%
- remaining at 24 h, 2 μmol/L ([5]; human, plasma): 100%
- solubility ([6]; Default Formulation (DF), isotonic, DF = 0.1 M Tris pH 7.5, 150 mM Mannitol): ≥ 5 mg/mL
- Formulation Concentration ([6]; Formulation DF, by A280 nm): 5 mg/mL
- 10 mg/ml solubility (BF2) ([6]; yes/no): no
- EC50 ([7]; EC50 at the GLP1R at 0% HSA, calculated from variation in cAMP generation with HSA concentration): 0.007 nM
- EC50 ([7]; Human GLP1R EC50, 4.4% human serum albumin): 0.455 nM
- EC50 [8]: 0.402 nM
- Human GlucR/GLP1R Ratio ([8]; relative potency GlucR / relative potency GLP1R vs natural ligands): 0.122
